For three molecules, EC50 and IC50 results are on record in US11028087B2, “2,6-disubstituted-9-cyclopentyl-9H-purines, use thereof as medicaments, and pharmaceutical compositions” (UNIVERZITA PALACKEHO V OLOMOUCI, priority 2017, dated 2021).

In experiment [1] the test system is K562. Description: Calcein AM cytotoxicity assay. It counts as cell-based. The note with it: Homo sapiens. From the text: (§1) Cytotoxicity of the compounds is the major property determining their anticancer effect in vivo. One of the parameters used, as the basis for cytotoxicity assays, is the integrity of cytoplasmic membrane of viable cells. For example, a microtiter assay, which uses acetomethoxy derivate of calcein (Calcein AM), is widely used for evaluation of cell proliferation and cytotoxicity. This assay is used in drug screening programs and in chemosensitivity testing. Intracellular esterases of viable cells convert calcein AM to green-fluorescent calcein of which signal corresponds to the number of viable cells in the culture.
(§2) We have been using the following cell lines: MV4-11 (acute myeloid leukemia, FLT3-ITD positive), MOLM-13 (acute myeloid leukemia, FLT3-ITD positive), THP-1 (acute myeloid leukemia, wt FLT3), U937 (monocytic leukemia, wt FLT3), EOL-1 (eosinophilic leukaemia, carrying the fusion FIP1L1-PDGFRA), H1703 (non-small cell lung carcinoma, PDGFRA amplification). […] K562 and MCF-7 cell lines were maintained in DMEM supplemented with 10% fetal bovine serum, penicilin (100 U/ml) and streptomycin (100 μg/ml). All cell lines were cultivated at 37° C. in 5% CO2. For cytotoxicity assays, cells were seeded in appropriate densities into 96 well plates and the next day tested compounds were added at various concentrations in triplicates. Three days after drug addition, Calcein AM solution (final concentration 1 μg/ml; Thermo Scientific, USA) was added into each well and incubated for 1 h.

For experiment [2], the system named is EOL-1 (eosinophilic leukaemia, carrying the fusion FIP1L1-PDGFRA). Description: Calcein AM cytotoxicity assay. In kind it is cell-based. As to conditions: Homo sapiens.
Source text: as §1, §2

Experiment [3] concerns MV4-11 (acute myeloid leukemia, FLT3-ITD positive). In words: Calcein AM cytotoxicity assay. In kind it is cell-based. The note with it: Homo sapiens.
Source text: as §1, §2

In experiment [4] the test system is MOLM-13 (acute myeloid leukemia, FLT3-ITD positive). Description: Calcein AM cytotoxicity assay. As to conditions: Homo sapiens. It counts as cell-based.
Source text: as §1, §2

Experiment [5] concerns U937 (monocytic leukemia, wt FLT3). Description: Calcein AM cytotoxicity assay. In kind it is cell-based. As to conditions: Homo sapiens.
Source text: as §1, §2

Experiment [6] has as its system MCF-7. Description: Calcein AM cytotoxicity assay. In kind it is cell-based. The note with it: Homo sapiens.
Source text: as §1, §2

In experiment [7] the test system is THP-1 (acute myeloid leukemia, wt FLT3). In words: Calcein AM cytotoxicity assay. In kind it is cell-based. The note with it: Homo sapiens.
Source text: as §1, §2

The target in experiment [8] is T1, FLT3-ITD (Homo sapiens, UniProt P36888).
T1 sequence (P36888 1-993): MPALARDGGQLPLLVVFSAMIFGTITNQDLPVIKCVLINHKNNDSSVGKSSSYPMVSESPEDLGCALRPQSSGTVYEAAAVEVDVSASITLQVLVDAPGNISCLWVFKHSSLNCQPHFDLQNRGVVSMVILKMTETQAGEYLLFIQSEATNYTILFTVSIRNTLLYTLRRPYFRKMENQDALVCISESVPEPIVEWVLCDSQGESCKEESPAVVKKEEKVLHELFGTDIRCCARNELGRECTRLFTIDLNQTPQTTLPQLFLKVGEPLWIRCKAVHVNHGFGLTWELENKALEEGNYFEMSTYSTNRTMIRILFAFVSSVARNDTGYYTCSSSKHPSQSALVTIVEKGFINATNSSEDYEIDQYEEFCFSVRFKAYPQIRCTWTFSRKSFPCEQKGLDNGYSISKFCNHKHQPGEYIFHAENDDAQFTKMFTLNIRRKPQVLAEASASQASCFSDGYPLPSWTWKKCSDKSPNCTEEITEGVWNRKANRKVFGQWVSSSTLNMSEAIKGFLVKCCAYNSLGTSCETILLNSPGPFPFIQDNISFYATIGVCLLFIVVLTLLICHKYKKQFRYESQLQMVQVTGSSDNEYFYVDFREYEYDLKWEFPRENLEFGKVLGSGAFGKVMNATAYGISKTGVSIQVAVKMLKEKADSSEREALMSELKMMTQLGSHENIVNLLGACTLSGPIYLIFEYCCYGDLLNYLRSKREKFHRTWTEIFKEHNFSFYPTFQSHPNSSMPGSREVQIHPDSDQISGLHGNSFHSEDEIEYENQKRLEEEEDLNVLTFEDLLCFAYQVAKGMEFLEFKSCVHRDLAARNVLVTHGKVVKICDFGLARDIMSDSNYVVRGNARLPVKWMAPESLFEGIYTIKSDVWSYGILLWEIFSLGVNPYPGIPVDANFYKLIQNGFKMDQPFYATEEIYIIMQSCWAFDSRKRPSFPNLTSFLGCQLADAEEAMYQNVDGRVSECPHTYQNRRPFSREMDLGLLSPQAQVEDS
Description: Kinase inhibition assay with [γ-33P]ATP. As to conditions: comparative example; read-out: Influence of compounds on protein kinase inhibition, IC50 values (μM) FLT3 ITD. In kind it is biochemical. How it is done: (§3) CDK1/Cyclin B and CDK2/Cyclin E kinases were produced in Sf9 insect cells via baculoviral infection and purified on a NiNTA column (Qiagen). CDK5/p35 and CDK7Cyclin H/MAT1, FLT3 WT, FLT3-ITD and FLT3 D835 were purchased from ProQinase GmbH. The kinase reactions were assayed with 1 mg/mL histone H1 (for CDK1, CDK2 and CDK5), (YSPTSPS)2KK peptide (for CDK7) or AGLT substrate (for FLT3) in the presence of 15/15/0.15/1.5/1 μM ATP (for CDK1/CDK2/CDK5/CDK7/FLT3), 0.05 μCi [γ-^33P]ATP and of the test compound in a final volume of 10 μL, all in a reaction buffer (60 mM HEPES-NaOH, pH 7.5, 3 mM MgCl2, 3 mM MnCl2, 3 μM Na-orthovanadate, 1.2 mM DTT, 2.5 μg/50 μl PEG20,000). The reactions were stopped by adding 5 μL of 3% aq H3PO4. Aliquots were spotted onto P-81 phosphocellulose (Whatman), washed 3× with 0.5% aq H3PO4 and finally air-dried.

Experiment [9] concerns the target T2, CDK2/Cyclin E (Homo sapiens, UniProt P24941).
T2 construct: made in house; host or cells: Sf9 insect cells, baculoviral infection
Description: Kinase inhibition assay with [γ-33P]ATP. In kind it is biochemical. How it is done: as §3

Experiment [10] has as its system Kasumi-1 (acute myeloid leukemia, KIT mutation Asn822Lys). Description: Calcein AM cytotoxicity assay. The note with it: Homo sapiens. In kind it is cell-based.
Source text: as §1
We have been using the following cell lines: MV4-11 (acute myeloid leukemia, FLT3-ITD positive), MOLM-13 (acute myeloid leukemia, FLT3-ITD positive), THP-1 (acute myeloid leukemia, wt FLT3), U937 (monocytic leukemia, wt FLT3), EOL-1 (eosinophilic leukaemia, carrying the fusion FIP1L1-PDGFRA), H1703 (non-small cell lung carcinoma, PDGFRA amplification). They were maintained in RPMI-1640 supplemented with 10% fetal bovine serum, penicillin (100 U/ml) and streptomycin (100 μg/ml). Kasumi-1 (acute myeloid leukemia, KIT mutation Asn822Lys) cells were cultivated in RPMI-1640 supplemented with 15% fetal bovine serum, penicillin (100 U/ml) and streptomycin (100 μg/ml). K562 and MCF-7 cell lines were maintained in DMEM supplemented with 10% fetal bovine serum, penicilin (100 U/ml) and streptomycin (100 μg/ml). All cell lines were cultivated at 37° C. in 5% CO2. For cytotoxicity assays, cells were seeded in appropriate densities into 96 well plates and the next day tested compounds were added at various concentrations in triplicates. Three days after drug addition, Calcein AM solution (final concentration 1 μg/ml; Thermo Scientific, USA) was added into each well and incubated for 1 h. After this incubation period, fluorescence of the live cells was measured at 485 nm/538 nm (ex/em) with a Fluoroskan Ascent microplate reader (Labsystems).

The target in experiment [11] is T3, FLT3 WT (Homo sapiens, UniProt P36888).
T3 construct: purchased ProQinase GmbH
T3 sequence (P36888 27-993): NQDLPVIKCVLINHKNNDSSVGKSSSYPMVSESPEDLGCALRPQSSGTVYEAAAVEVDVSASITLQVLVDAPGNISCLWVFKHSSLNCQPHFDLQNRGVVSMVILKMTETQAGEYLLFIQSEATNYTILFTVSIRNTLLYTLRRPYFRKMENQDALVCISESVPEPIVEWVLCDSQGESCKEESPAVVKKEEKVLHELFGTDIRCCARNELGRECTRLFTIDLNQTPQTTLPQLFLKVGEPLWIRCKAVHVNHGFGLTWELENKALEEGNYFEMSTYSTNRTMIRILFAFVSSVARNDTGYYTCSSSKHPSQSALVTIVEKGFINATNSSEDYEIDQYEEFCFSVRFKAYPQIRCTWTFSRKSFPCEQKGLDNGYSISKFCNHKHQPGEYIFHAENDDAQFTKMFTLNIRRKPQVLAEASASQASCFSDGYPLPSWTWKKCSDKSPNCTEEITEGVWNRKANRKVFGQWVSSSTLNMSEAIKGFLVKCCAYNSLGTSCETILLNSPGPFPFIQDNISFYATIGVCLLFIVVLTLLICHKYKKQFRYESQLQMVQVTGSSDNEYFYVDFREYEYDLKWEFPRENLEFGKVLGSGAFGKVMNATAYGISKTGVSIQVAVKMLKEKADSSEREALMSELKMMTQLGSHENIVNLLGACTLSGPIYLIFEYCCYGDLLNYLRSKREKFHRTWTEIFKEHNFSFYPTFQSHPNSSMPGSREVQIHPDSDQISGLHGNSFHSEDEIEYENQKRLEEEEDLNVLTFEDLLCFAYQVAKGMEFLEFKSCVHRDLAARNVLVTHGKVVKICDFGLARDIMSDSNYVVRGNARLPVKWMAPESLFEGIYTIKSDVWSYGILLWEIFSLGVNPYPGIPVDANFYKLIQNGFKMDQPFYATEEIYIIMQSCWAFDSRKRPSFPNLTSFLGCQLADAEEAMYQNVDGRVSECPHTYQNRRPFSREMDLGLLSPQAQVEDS
In words: Kinase inhibition assay with [γ-33P]ATP. As to conditions: AGLT substrate, 1 μM ATP. It counts as biochemical. How it is done:
as §3

Where [12] appears, read: comparative example, K562, 72 h, read-out: Influence of compounds on proliferation (72 h), EC50 values (μM) K562.
[13] abbreviates: comparative example, MV4-11, 72 h, read-out: Influence of compounds on proliferation (72 h), EC50 values (μM) MV4-11.
The mark [14] stands for this setting: comparative example, MOLM-13, 72 h, read-out: Influence of compounds on proliferation (72 h), EC50 values (μM) MOLM-13.
Setting [15] is: comparative example, read-out: Influence of compounds on protein kinase inhibition, IC50 values (μM) CDK2.

Read-outs that look alike come from different tables or passages of the source.

As for `NC1CCC(Nc2nc(Nc3ccc(CN4CCOCC4)cc3)c3ncn(Cc4ccccc4)c3n2)CC1` (stereo not shown) [Benzyl derivative of compound 264, reference compound], the EC50 is 2.69 µM in experiment [1] (setting [12]); 0.491 µM in experiment [2] (EOL1, comparative example, EOL-1, 72 h, read-out: Influence of compounds on proliferation (72 h), EC50 values (μM) EOL-1); 0.393 µM in [3] (setting [13]); 1.26 µM in experiment [4] (setting [14]); 2.62 µM in [5] (U-937, comparative example, U937, 72 h, read-out: Influence of compounds on proliferation (72 h), EC50 values (μM) U937); 4.83 µM in experiment [6] (MCF7, comparative example, MCF-7, 72 h, read-out: Influence of compounds on proliferation (72 h), EC50 values (μM) MCF-7). In addition, the EC50 in experiment [7] (comparative example, THP-1, 72 h, read-out: Influence of compounds on proliferation (72 h), EC50 values (μM) THP-1) is 14.8 µM. Moreover, the values for the IC50 in experiment [8] and in [9] (setting [15]) were 1.03 µM and 7.51 µM, respectively.
As to `c1cc(Nc2nc(N3CCCCC3)nc3c2ncn3C2CCCC2)ccc1CN1CCOCC1` [Compound 271], the EC50 in [1] (72 h, K562, Calcein AM, three days, read-out: EC50 values (μM) K562) is 8.28 µM; in experiment [2] (EOL1, 72 h, EOL-1, Calcein AM, three days, read-out: EC50 values (μM) EOL-1), 1.37 µM; in experiment [3] (72 h, MV4-11, Calcein AM, three days after drug addition, read-out: EC50 values (μM) MV4-11) it was 0.701 µM; in [4] (72 h, MOLM-13, Calcein AM, three days, read-out: EC50 values (μM) MOLM-13), 0.431 µM; in experiment [5] (U-937, 72 h, U937, Calcein AM, three days, read-out: EC50 values (μM) U937) it was 7.62 µM; in experiment [6] (MCF7, 72 h, MCF-7, Calcein AM, three days, read-out: EC50 values (μM) MCF-7) it was 12.3 µM. The EC50 was above 10 µM in experiment [7] (72 h, THP-1, Calcein AM, three days, read-out: EC50 values (μM) THP-1) and 2.16 µM in experiment [10] (72 h, Kasumi-1, Calcein AM, three days, read-out: EC50 values (μM) Kasumi-1). In addition, the IC50 in experiment [9] (histone H1, 15 μM ATP, read-out: IC50 values (μM) CDK2) came out at 1.98 µM; in experiment [11], 0.073 µM.
As for `NC1CCC(Nc2nc(Nc3ccc(CN4CCOCC4)cc3)c3ncn(-c4ccccc4)c3n2)CC1` (stereo not shown) [Phenyl derivative of compound 264, reference compound], the EC50 in [1] (setting [12]) is 1.81 µM; in [3] (setting [13]), 0.648 µM; in [4] (setting [14]) it was 0.912 µM; in experiment [10] (comparative example, Kasumi-1, 72 h, read-out: Influence of compounds on proliferation (72 h), EC50 values (μM) Kasumi-1), 0.722 µM. Moreover, the half-maximal inhibitory concentration (IC50) in experiment [8] was 0.759 µM; in experiment [9] (setting [15]) it was above 5 µM.
